Assay results from US20050182025A1, “Amidinylphenyl compounds and their use as fungicides” (priority 2002, published 2005).

How the values were obtained:
Assay type in all cases: in vivo
[1] = test system: Erysiphe graminis f. sp. tritici; assay: Test A: preventive spray on wheat seedlings, wheat powdery mildew, disease rating; conditions: wheat seedlings sprayed to run-off, inoculated the following day with Erysiphe graminis f. sp. tritici, rated after 7 days at 20° C.; test concentration not given
In short: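 Wheat seedlings sprayed to run-off with compound suspension (200 ppm ≈ 500 g/ha) in acetone/water with surfactant, inoculated next day with Erysiphe graminis f. sp. tritici spores. After 7 days at 20 °C, disease rated 0–100 as % control relative to untreated plants.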

[2] = test system: Puccinia recondita; assay: Test B: preventive spray on wheat seedlings, wheat leaf rust, disease rating; conditions: wheat seedlings sprayed to run-off, inoculated the following day with Puccinia recondita, 24 h saturated atmosphere then 6 days at 20° C.; test concentration not given
In short: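 Compound suspended in acetone/water (50/50) with 250 ppm Trem 014 surfactant, sprayed to run-off on wheat seedlings (200 ppm ≈ 500 g/ha); P. recondita spores inoculated next day. Plants held 24 h saturated at 20° C, then 6 days at 20° C; disease rated as % control relative to untreated (100 = full control).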

[3] = test system: Septoria nodorum; assay: Test C: preventive spray on wheat seedlings, Septoria glume blotch, disease rating; conditions: wheat seedlings sprayed to run-off, inoculated the following day with Septoria nodorum, 48 h saturated atmosphere then 9 days at 20° C.; test concentration not given
In short: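 Wheat seedlings were sprayed to run-off with compound suspensions in acetone/water containing 250 ppm Trem 014 (200 ppm equals 500 g/ha), then inoculated with Septoria nodorum spores next day. Plants were held 48 h saturated at 20° C., then 9 days at 20° C. Disease control was rated 0–100 relative to controls.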

Structure (SMILES) | Test A disease control rating (100 = 100% disease control, 0 = no disease control relative to the controls) [1] | Test B disease control rating (100 = 100% disease control, 0 = no disease control relative to the controls) [2] | Test C disease control rating (100 = 100% disease control, 0 = no disease control relative to the controls) [3]
CCN(C)C(=S)Nc1cc(Cl)c(OCCCC(C)(C)C)cc1C [compound 178] | 100% | 100% | 100%
CCCCCCOc1cc(C)c(N=CN(C)C)cc1C [Compound 20] | 96% | 100% | 99%
C=C(C)CC(CC)Sc1cc(C)c(N=CN(C)C)cc1C (stereo not drawn) [compound 161] | 72% | 100% | 53%
Cc1cc(OCCCO[Si](C)(C)C(C)(C)C)c(C)cc1N=CN(C)C [Compound 27] | 99% | 100% | 100%
CC[Si](C)(C)CCCOc1cc(C)c(N=CN(C)C2CC2)cc1Cl [compound 65] | 100% | 100% | 96%
Cc1cc(SC(C)CCC(C)C)c(C)cc1N=CN(C)C (stereo not drawn) [compound 105] | 97% | 100% | 98%
CCN(C)C(=S)Nc1cc(C)c(OCCCC(C)C)cc1C [compound 106] | 100% | 100% | 100%
CCN(C)C(=S)Nc1cc(C(C)C)c(OCCC[Si](C)(C)C)cc1C [compound 94] | 99% | 100% | 100%
Cc1cc(OCCOC(C)(C)C)c(C)cc1N=CN(C)C [Compound 41] | 79% | 99% | 47%
CC(=Nc1cc(Cl)c(OCCC[Si](C)(C)C)cc1C)N(C)C [compound 173] | 32% | 90% | 99%
Cc1cc(OCCCC(C)(C)O)c(C)cc1N=CN(C)C [Compound 45] | 0% | 80% | 0%
Cc1cc(NC(=O)N(C)CC(C)(C)C)c(C)cc1N=CN(C)C [compound 193] | 0% | 23% | 0%
CCN(C)C(=S)Nc1cc(Cl)c(OCCCC(C)C)cc1Cl [compound 125] | 96% | 97% | 100%
CCOC(C)(C)CCCOc1cc(C)c(N=CN(C)C)cc1C [Compound 44] | 99% | 100% | 99%
CC(=Nc1cc(C)c(OCCC(C)CC(C)(C)C)cc1C)N(C)C (stereo not drawn) [compound 98] | 0% | 60% | 94%
COC(=O)C(=Nc1cc(C)c(OCCC[Si](C)(C)C)cc1C)N(C)C [compound 128] | 98% | 95% | 73%

Structure (SMILES) | Test A disease control rating (100 = 100% disease control, 0 = no disease control relative to the controls) [1] | Test B disease control rating (100 = 100% disease control, 0 = no disease control relative to the controls) [2] | Test C disease control rating (100 = 100% disease control, 0 = no disease control relative to the controls) [3]
Cc1cc(OCCC(C)CCCC(C)C)c(C)cc1N=CN(C)C (stereo not drawn) [Compound 10] | 97% | 100% | 0%
Cc1cc(SCCCC(C)C)c(C)cc1N=CN(C)C [compound 156] | 93% | 100% | 100%
CN(C)C=Nc1cc(Cl)c(OCCC[Si](C)(C)C)c(Cl)c1Cl [compound 55] | 0% | 19% | 0%
CCN(C)C=Nc1cc(Cl)c(OCCC[Si](C)(C)C)cc1C [compound 54] | 100% | 100% | 100%
CCN(CC)C(=S)Nc1cc(Cl)c(OCCC[Si](C)(C)C)c(Cl)c1C [compound 179] | 20% | 23% | 0%
CCN(C)C(=S)Nc1cc(C)c(OCCC[Si](C)(C)C)cc1C [compound 164] | 100% | 100% | 100%
CCCC(CCC)Oc1cc(C)c(N=C(C)N(C)C)cc1C [compound 101] | 100% | 100% | 100%
Cc1cc(OCC=CC(C)(C)C)c(C)cc1N=CN(C)C [Compound 40] | 97% | 100% | 100%
CCCCCOc1cc(C)c(N=CN(C)C)cc1C [Compound 19] | 96% | 100% | 100%
CC(=Nc1cc(C)c(OCCCC(C)C)cc1C)N(C)C [compound 96] | 0% | 100% | 100%
Cc1cc(OCCCC(C)(C)C)c(C)cc1NC(=S)N(C)C [compound 192] | 99% | 100% | 100%
CCN(C)C=Nc1cc(Cl)c(OCCC[Si](C)(C)CC)cc1C [compound 57] | 100% | 100% | 100%
CC(C)=CCCOc1cc(C)c(N=CN(C)C)cc1C [Compound 39] | 0% | 100% | 94%
Cc1cc(OCCC[Si](C)(C)C)c(C)cc1NC(=S)N(C)C [compound 167] | 99% | 99% | 100%
CCCN(C)C(=S)Nc1cc(C(C)C)c(OCCC[Si](C)(C)C)cc1C [compound 93] | 99% | 100% | 99%
CCCCCC(CCCCC)Oc1cc(C)c(N=CN(C)C)cc1C [Compound 30] | 0% | 100% | 0%
